Converted amounts (≈) assume the structure as drawn. “And” between values parts separate entries of the source, which are not always exact repeats. Identical values can stand only once.
What was measured:
Assay in all cases: ≥ marks a high value that may be exact or a test limit, other limits are often not marked, values filed in µg/mL are converted to µM
[1] = tested on: Escherichia coli ATCC 25922
Escherichia coli K88 = tested on: Escherichia coli K88
Escherichia coli K99 = tested on: Escherichia coli K99
Escherichia coli UB1005 = tested on: Escherichia coli UB1005
[2] = tested on: Lacticaseibacillus rhamnosus 1.0385
[3] = tested on: Lacticaseibacillus rhamnosus 1.0911
[4] = tested on: Lacticaseibacillus rhamnosus 1.0936
[5] = tested on: Lacticaseibacillus rhamnosus 7469
[6] = tested on: Lactiplantibacillus plantarum 8014
[7] = tested on: Pseudomonas aeruginosa ATCC 27853
[8] = tested on: Salmonella enterica subsp. enterica serovar Pullorum C79-13
[9] = tested on: Salmonella enterica subsp. enterica serovar Typhimurium ATCC 14028
[10] = tested on: Salmonella enterica subsp. enterica serovar Typhimurium C77-31
[11] = tested on: Staphylococcus aureus ATCC 25923
[12] = tested on: Staphylococcus aureus ATCC 43300
[13] = tested on: Candida albicans ATCC 36232
[14] = tested on: Micrococcus luteus ATCC 9341
[15] = tested on: Staphylococcus aureus ATCC 6538
[16] = tested on: Staphylococcus aureus ATCC 29213
[17] = tested on: Acinetobacter baumannii 9931
[18] = tested on: Acinetobacter baumannii ATCC 19606
[19] = tested on: Bacillus subtilis ATCC 23857
Escherichia coli 780 = tested on: Escherichia coli 780
[20] = tested on: Klebsiella pneumoniae ATCC 700603
[21] = tested on: Pseudomonas aeruginosa 50
[22] = tested on: Pseudomonas aeruginosa ATCC 9027
[23] = tested on: Staphylococcus aureus 113
Staphylococcus aureus 75 = tested on: Staphylococcus aureus 75
[24] = tested on: Staphylococcus epidermidis ATCC 12228

Row | MIC [1] [µM] | MIC (Escherichia coli K88) [µM] | MIC (Escherichia coli K99) [µM] | MIC (Escherichia coli UB1005) [µM] | MIC [2] [µM] | MIC [3] [µM] | MIC [4] [µM] | MIC [5] [µM] | MIC [7] [µM] | MIC [8] [µM] | MIC [9] [µM] | MIC [10] [µM] | MIC [11] | MIC [12] [µM] | MIC [16] [µM] | SMILES | MIC [6] [µM] | also measured
1 | 8 (≈ 13.7 µg/mL) | ≥ 32 | 4 (≈ 6.87 µg/mL) | 8 (≈ 13.7 µg/mL) | ≥ 64 | ≥ 64 | ≥ 64 | ≥ 64 | > 64 | 8 (≈ 13.7 µg/mL) | 64 (≈ 110 µg/mL) | ≥ 32 | 4 µM (≈ 6.87 µg/mL) | 4 (≈ 6.87 µg/mL) |  | C[C@@H]1NC(=O)[C@@H](N)CSSC[C@@H](C(=O)N[C@@H](CCCN=C(N)N)C(=O)N[C@@H](Cc2c[nH]c3ccccc23)C(=O)N[C@@H](Cc2c[nH]c3ccccc23)C(=O)N[C@@H](Cc2c[nH]c3ccccc23)C(=O)N[C@@H](CCCN=C(N)N)C(=O)N[C@@H](CCCN=C(N)N)C(N)=O)NC(=O)[C@H](Cc2ccccc2)NC(=O)[C@H](Cc2ccc(O)cc2)NC(=O)[C@H](CO)NC1=O [CASYFCRWWWRR] | ≥ 64 | 
2 |  |  |  |  |  |  |  |  |  |  |  |  |  |  |  | CC(C)[C@H](NC(=O)[C@H](CCCCN)NC(=O)[C@H](Cc1ccccc1)NC(=O)[C@@H](NC(=O)[C@@H](NC(=O)[C@@H](N)CCCCN)C(C)C)C(C)C)C(=O)N[C@@H](CCCCN)C(=O)N[C@@H](Cc1ccccc1)C(=O)N[C@@H](CCCCN)C(=O)N[C@@H](CCCCN)C(=O)N[C@@H](CCCCN)C(N)=O [KVVFKVKFKKK] |  | MIC [13]: 4.53 µM and 2.27 µM and 3.21 µM; MIC [14]: 2.27 µM (≈ 3.13 µg/mL); MIC [15]: 2.27 µM (≈ 3.13 µg/mL)
3 | > 64 | ≥ 64 | ≥ 64 | ≥ 64 | ≥ 64 | ≥ 64 | ≥ 64 | ≥ 64 | > 64 | ≥ 64 | > 64 | ≥ 64 | > 64 µM | > 64 | > 64 | C[C@H](NC(=O)[C@H](C)NC(=O)[C@H](Cc1c[nH]c2ccccc12)NC(=O)[C@H](Cc1c[nH]c2ccccc12)NC(=O)[C@H](Cc1c[nH]c2ccccc12)NC(=O)[C@@H](N)CCCN=C(N)N)C(N)=O [RWWWAA] | ≥ 64 | 
4 |  |  |  |  |  |  |  |  | 16 (≈ 42.6 µg/mL) |  |  |  | 8 µM and 16 µM |  | 8 (≈ 21.3 µg/mL) | NC(=O)[C@H](Cc1c[nH]c2ccccc12)NC(=O)[C@H](CCCN=C(N)N)NC(=O)[C@H](Cc1c[nH]c2ccccc12)NC(=O)[C@H](Cc1c[nH]c2ccccc12)NC(=O)[C@H](CCCN=C(N)N)NC(=O)[C@H](Cc1c[nH]c2ccccc12)NC(=O)[C@H](Cc1c[nH]c2ccccc12)NC(=O)[C@H](CCCN=C(N)N)NC(=O)[C@H](Cc1c[nH]c2ccccc12)NC(=O)[C@H](Cc1c[nH]c2ccccc12)NC(=O)[C@H](CCCN=C(N)N)NC(=O)[C@H](Cc1c[nH]c2ccccc12)NC(=O)[C@H](Cc1c[nH]c2ccccc12)NC(=O)[C@H](CCCN=C(N)N)NC(=O)[C@@H](N)Cc1c[nH]c2ccccc12 [WRWWRWWRWWRWWRW] |  | MIC [17]: 16 µM (≈ 42.6 µg/mL); MIC [18]: 16 µM (≈ 42.6 µg/mL); MIC [19]: 4 µM (≈ 10.6 µg/mL); MIC (Escherichia coli 780): 16 µM (≈ 42.6 µg/mL); MIC [20]: 16 µM (≈ 42.6 µg/mL); MIC [21]: ≥ 32 µM; MIC [22]: 16 µM (≈ 42.6 µg/mL); MIC [23]: 4 µM (≈ 10.6 µg/mL); MIC (Staphylococcus aureus 75): 8 µM (≈ 21.3 µg/mL); MIC [24]: 4 µM (≈ 10.6 µg/mL)

From DBAASP
